Assays:
HT-29 tumor-bearing mice = assay: Biodistribution of radionuclide labeled complexes in HT-29 tumor-bearing mice; format: in vivo, BALB/c nude mice
Protocol: The BALB/c nude mice (Charles River, Beijing) were utilized to establish the xenografted model for biodistribution study. All animal care and experimental procedure were performed by following the animal protocols approved by the ethics committee of China Institute of Radiation Protection.
Briefly, each mouse was inoculated with approximately 4×10^6 ASPC-1 cells (human pancreatic cancer cell line) or HT-29 cells (human colorectal adenocarcinoma cell line) expressing human NTSR-1 by subcutaneous injection at rear flank. After inoculation, the xenografted tumors were allowed to grow for ˜2-4 weeks till the tumor weight reached to about 0.05 to 0.50 g (0.20 g in average).
Biodistribution studies were performed by administrating the radionuclide labeled test compound at a dose of ˜30-50 μCi (100 μL in 0.9% NaCl, ˜1.11-1.85 MBq, with specific activity 30-250 μCi/nmol) to each animal through tail vein injection.
At different time points after the administration, the mice treated with each compound were euthanized. The tissues and organs of the animals in each group were collected, excised, weighed, and analyzed in a PerkinElmer 2480 WIZARD2γ counter, and the percent injected dose (% ID) and % ID/g of each organ or tissue were calculated.

[1] = Stability of ^177Lu labeled complexes in PBS by radio-HPLC; format: physicochemical; conditions: incubation at room temperature over 120 h in PBS (pH 7.4) or PBS with 3 mg/mL ascorbic acid
Protocol: Exemplary compounds of the present application were labeled with ^177Lu to evaluate stability of the compounds after radionuclide labeling. Briefly, 4 μL exemplary compounds in DMSO stock solution (2000 μM) and 2 mCi ^177Lu (ITM Isotope Technologies Munich) were mixed together in 0.5 M NaOAc buffer (20-50 μL, pH=4.5), followed by incubation at 95° C. for 15 min. Then the labeled complexes were subject to radio-TLC analysis (a polyamide film using methanol and 1M ammonium acetate as the mobile phase, v/v: 4:1, detected by Mini Scan) and radio-HPLC analysis (column: Shim-pack GIST 5 μm 4.6*150 mm; buffer A: 0.2% formic acid H2O; buffer B: 0.1% formic acid acetonitrile; flow rate: 1 mL/min; gradient: 0-5 min: 10% B to 95% B; then 5-8 min: 95% B).
After radionuclide labeling, the complexes were diluted to ˜1.5 mCi/0.30 mL by PBS (pH 7.4) or PBS with 3 mg/mL ascorbic acid (pH 7.4). Then the diluted samples were incubated at room temperature, followed by stability analysis via radio-HPLC at 0, 4, 24, 48, 72, 120 h of incubation, respectively. FIG. 1 illustrates stability analysis of a representative complex ^177Lu—I-7.

[2] = tested on: ASPC-1 tumor-bearing mice; assay: SPECT/CT imaging of ^177Lu-labeled complexes; format: in vivo; conditions: over 72 hours
Protocol: ASPC-1 tumor-bearing mice were IV-injected with about 120 μCi of ^177Lu-labeled complexes, then anesthetized under 2% isoflurane/oxygen gas and placed on the scanner. SPECT/CT images were acquired in three bed positions for 30 min using a MILabs SPECT scanner. Whole-body SPECT images were acquired at 1 h, 4 h, 24 and 72 h after injecting the radiotracers.

With `COc1cccc(OC)c1-c1cc(C(=O)NC2(C(=O)O)C3CC4CC(C3)CC2C4)nn1-c1ccc(OCCCN(C)CCCN(C)C(=O)CN2CCN(CC(=O)[O-])CCN(CC(=O)[O-])CCN(CC(=O)[O-])CC2)cc1C(C)C.[177Lu+3]` (stereo not drawn) [^177Lu-I-7] as the compound, how does the “% ID/g (4 h) Femur” value (HT-29 tumor-bearing mice; Femur, 4 h) read?
The value was 0.56 ± 0.23 % ID/g.

And the “% ID/g (24 h) Femur” value (HT-29 tumor-bearing mice; Femur, 24 h)?
Its value is 0.11 ± 0.02 % ID/g.

And the “% ID/g (72 h) Femur” value (HT-29 tumor-bearing mice; Femur, 72 h)?
Its value is 0.06 ± 0.03 % ID/g.

What about the “% ID/g (120 h) Femur” value (HT-29 tumor-bearing mice; Femur, 120 h) of the same compound?
Its value is 0.07 ± 0.02 % ID/g.

What about the “% ID/g (1 h) Heart” value (HT-29 tumor-bearing mice; Heart, 1 h) of the same compound?
Its value is 5.28 ± 0.74 % ID/g.

And the “% ID/g (4 h) Heart” value (HT-29 tumor-bearing mice; Heart, 4 h)?
The value was 1.31 ± 0.53 % ID/g.

And the “% ID/g (24 h) Heart” value (HT-29 tumor-bearing mice; Heart, 24 h)?
The value was 0.16 ± 0.01 % ID/g.

And the “% ID/g (72 h) Heart” value (HT-29 tumor-bearing mice; Heart, 72 h)?
The value was 0.11 ± 0.01 % ID/g.

What about the “% ID/g (120 h) Heart” value (HT-29 tumor-bearing mice; Heart, 120 h) of the same compound?
Its value is 0.05 ± 0.03 % ID/g.

And the “% ID/g (1 h) Intestine” value (HT-29 tumor-bearing mice; Intestine, 1 h)?
Its value is 2.84 ± 1.07 % ID/g.

What about the “% ID/g (4 h) Intestine” value (HT-29 tumor-bearing mice; Intestine, 4 h) of the same compound?
Its value is 1.71 ± 0.23 % ID/g.

And the “% ID/g (24 h) Intestine” value (HT-29 tumor-bearing mice; Intestine, 24 h)?
The value was 0.66 ± 0.29 % ID/g.

What about the “% ID/g (72 h) Intestine” value (HT-29 tumor-bearing mice; Intestine, 72 h) of the same compound?
Its value is 0.29 ± 0.23 % ID/g.

What about the “% ID/g (120 h) Intestine” value (HT-29 tumor-bearing mice; Intestine, 120 h) of the same compound?
Its value is 0.19 ± 0.01 % ID/g.

What about the “% ID/g (1 h) Kidney” value (HT-29 tumor-bearing mice; Kidney, 1 h) of the same compound?
Its value is 4.41 ± 2.41 % ID/g.

And the “% ID/g (4 h) Kidney” value (HT-29 tumor-bearing mice; Kidney, 4 h)?
Its value is 1.73 ± 0.79 % ID/g.

What about the “% ID/g (24 h) Kidney” value (HT-29 tumor-bearing mice; Kidney, 24 h) of the same compound?
Its value is 1.43 ± 1.04 % ID/g.

What about the “% ID/g (72 h) Kidney” value (HT-29 tumor-bearing mice; Kidney, 72 h) of the same compound?
Its value is 0.7 ± 0.3 % ID/g.

What about the “% ID/g (120 h) Kidney” value (HT-29 tumor-bearing mice; Kidney, 120 h) of the same compound?
Its value is 0.4 ± 0.15 % ID/g.

What about the “% ID/g (1 h) Liver” value (HT-29 tumor-bearing mice; Liver, 1 h) of the same compound?
Its value is 4.35 ± 1.78 % ID/g.

What about the “% ID/g (4 h) Liver” value (HT-29 tumor-bearing mice; Liver, 4 h) of the same compound?
Its value is 2.59 ± 1.08 % ID/g.

What about the “% ID/g (24 h) Liver” value (HT-29 tumor-bearing mice; Liver, 24 h) of the same compound?
The value was 0.85 ± 0.38 % ID/g.

And the “% ID/g (72 h) Liver” value (HT-29 tumor-bearing mice; Liver, 72 h)?
Its value is 0.57 ± 0.21 % ID/g.

What about the “% ID/g (120 h) Liver” value (HT-29 tumor-bearing mice; Liver, 120 h) of the same compound?
The value was 0.24 ± 0.04 % ID/g.

What about the “% ID/g (1 h) Lung” value (HT-29 tumor-bearing mice; Lung, 1 h) of the same compound?
Its value is 4.47 ± 3.31 % ID/g.

What about the “% ID/g (4 h) Lung” value (HT-29 tumor-bearing mice; Lung, 4 h) of the same compound?
The value was 1.81 ± 0.77 % ID/g.

What about the “% ID/g (24 h) Lung” value (HT-29 tumor-bearing mice; Lung, 24 h) of the same compound?
Its value is 0.35 ± 0.14 % ID/g.

What about the “% ID/g (72 h) Lung” value (HT-29 tumor-bearing mice; Lung, 72 h) of the same compound?
Its value is 0.23 ± 0.01 % ID/g.

And the “% ID/g (120 h) Lung” value (HT-29 tumor-bearing mice; Lung, 120 h)?
Its value is 0.07 ± 0.02 % ID/g.

And the “% ID/g (1 h) Muscle” value (HT-29 tumor-bearing mice; Muscle, 1 h)?
The value was 2.2 ± 1.08 % ID/g.

And the “% ID/g (4 h) Muscle” value (HT-29 tumor-bearing mice; Muscle, 4 h)?
Its value is 0.44 ± 0.26 % ID/g.

And the “% ID/g (24 h) Muscle” value (HT-29 tumor-bearing mice; Muscle, 24 h)?
The value was 0.05 ± 0.03 % ID/g.

What about the “% ID/g (72 h) Muscle” value (HT-29 tumor-bearing mice; Muscle, 72 h) of the same compound?
The value was 0.03 ± 0.01 % ID/g.

What about the “% ID/g (120 h) Muscle” value (HT-29 tumor-bearing mice; Muscle, 120 h) of the same compound?
The value was 0.04 ± 0.02 % ID/g.

And the “% ID/g (1 h) Pancreas” value (HT-29 tumor-bearing mice; Pancreas, 1 h)?
Its value is 1.48 ± 0.29 % ID/g.

And the “% ID/g (4 h) Pancreas” value (HT-29 tumor-bearing mice; Pancreas, 4 h)?
The value was 0.38 ± 0.17 % ID/g.

And the “% ID/g (24 h) Pancreas” value (HT-29 tumor-bearing mice; Pancreas, 24 h)?
The value was 0.07 ± 0.04 % ID/g.

And the “% ID/g (72 h) Pancreas” value (HT-29 tumor-bearing mice; Pancreas, 72 h)?
Its value is 0.03 ± 0.01 % ID/g.

And the “% ID/g (120 h) Pancreas” value (HT-29 tumor-bearing mice; Pancreas, 120 h)?
The value was 0.04 ± 0.01 % ID/g.

What about the “% ID/g (1 h) Spleen” value (HT-29 tumor-bearing mice; Spleen, 1 h) of the same compound?
Its value is 1.73 ± 1.08 % ID/g.

And the “% ID/g (4 h) Spleen” value (HT-29 tumor-bearing mice; Spleen, 4 h)?
Its value is 0.71 ± 0.41 % ID/g.

What about the “% ID/g (24 h) Spleen” value (HT-29 tumor-bearing mice; Spleen, 24 h) of the same compound?
The value was 0.14 ± 0.03 % ID/g.

What about the “% ID/g (72 h) Spleen” value (HT-29 tumor-bearing mice; Spleen, 72 h) of the same compound?
The value was 0.08 ± 0.01 % ID/g.

What about the “% ID/g (120 h) Spleen” value (HT-29 tumor-bearing mice; Spleen, 120 h) of the same compound?
Its value is 0.1 ± 0.04 % ID/g.

What about the “% ID/g (1 h) Stomach” value (HT-29 tumor-bearing mice; Stomach, 1 h) of the same compound?
The value was 2.58 ± 1.00 % ID/g.

And the “% ID/g (4 h) Stomach” value (HT-29 tumor-bearing mice; Stomach, 4 h)?
Its value is 0.76 ± 0.38 % ID/g.

What about the “% ID/g (24 h) Stomach” value (HT-29 tumor-bearing mice; Stomach, 24 h) of the same compound?
The value was 0.14 ± 0.03 % ID/g.

And the “% ID/g (72 h) Stomach” value (HT-29 tumor-bearing mice; Stomach, 72 h)?
The value was 0.06 ± 0.01 % ID/g.

What about the “% ID/g (120 h) Stomach” value (HT-29 tumor-bearing mice; Stomach, 120 h) of the same compound?
Its value is 0.061 ± 0.03 % ID/g.

And the “% ID/g (1 h) Tumor” value (HT-29 tumor-bearing mice; Tumor, 1 h)?
The value was 17.04 ± 5.68 % ID/g.

What about the “% ID/g (4 h) Tumor” value (HT-29 tumor-bearing mice; Tumor, 4 h) of the same compound?
Its value is 16.52 ± 12.39 % ID/g.

What about the “% ID/g (24 h) Tumor” value (HT-29 tumor-bearing mice; Tumor, 24 h) of the same compound?
The value was 20.35 ± 2.62 % ID/g.

What about the “% ID/g (72 h) Tumor” value (HT-29 tumor-bearing mice; Tumor, 72 h) of the same compound?
The value was 9.3 ± 7.53 % ID/g.

What about the “% ID/g (120 h) Tumor” value (HT-29 tumor-bearing mice; Tumor, 120 h) of the same compound?
The value was 6.42 ± 3.46 % ID/g.

What about the “stability of the labeled complex” value [1] of the same compound?
The value was “remained stable and no significant degradation was detected”.

What about the “clearance from other organs or tissues (SPECT/CT)” value [2] of the same compound?
Its value is “rapid clearance”.

What about the “retention in tumors (SPECT/CT)” value [2] of the same compound?
The value was “sustained retention in tumors”.

— patent US20240287046A1, “COMPOUNDS AND RADIOLIGANDS FOR TARGETING NEUROTENSIN RECEPTOR AND USES THEREOF” (Full-Life Technologies HK Limited, priority 2022, published 2024)
